Source: ChEMBL document CHEMBL5604063, “ASAP - DENV-2 NS2B-NS3 protease fluorescence dose response” (2024)
Several values for one entry are separate records, joined by “and”; a condition that tells them apart may be missing. Equal entries are not always repeated.

How the values were obtained:
Genome polyprotein [1] = target: T1, Genome polyprotein (dengue virus type 2, UniProt P29990); format: functional, Thailand/16681/1984
Genome polyprotein [2] = target: T1, Genome polyprotein; format: functional, Thailand/16681/1984; remark: listed apart in the source

T1 sequence (P29990 1346-1475 limits assumed): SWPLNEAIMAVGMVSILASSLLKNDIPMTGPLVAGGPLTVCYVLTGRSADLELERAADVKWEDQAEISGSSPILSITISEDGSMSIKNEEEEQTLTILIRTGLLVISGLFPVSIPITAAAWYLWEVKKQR
T1 sequence (P29990 1476-2093 limits assumed): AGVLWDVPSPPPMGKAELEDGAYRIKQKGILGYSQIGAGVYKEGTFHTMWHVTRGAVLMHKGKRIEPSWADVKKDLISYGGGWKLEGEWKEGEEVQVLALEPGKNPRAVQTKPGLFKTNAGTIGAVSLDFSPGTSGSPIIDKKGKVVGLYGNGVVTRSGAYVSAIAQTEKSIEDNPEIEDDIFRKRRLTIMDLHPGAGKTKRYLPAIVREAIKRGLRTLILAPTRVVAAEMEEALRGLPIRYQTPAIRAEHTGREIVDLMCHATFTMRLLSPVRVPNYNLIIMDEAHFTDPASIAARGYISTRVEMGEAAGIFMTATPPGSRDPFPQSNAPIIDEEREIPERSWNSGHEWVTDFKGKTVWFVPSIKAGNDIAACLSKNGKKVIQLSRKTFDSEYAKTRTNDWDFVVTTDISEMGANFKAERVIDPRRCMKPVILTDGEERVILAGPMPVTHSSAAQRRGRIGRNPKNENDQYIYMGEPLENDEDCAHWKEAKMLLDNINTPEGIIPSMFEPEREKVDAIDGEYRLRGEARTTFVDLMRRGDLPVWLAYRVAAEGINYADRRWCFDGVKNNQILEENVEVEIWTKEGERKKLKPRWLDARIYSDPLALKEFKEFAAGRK

SMILES | IC50 (Genome polyprotein [1]) | IC50 (Genome polyprotein [2])
Cn1nc([C@H](C#N)Nc2cccc([C@H]3CCOC3)c2)cc1C1CC1 | > 100 µM | > 99.5 µM
O=C(O)c1ccc(-c2cc(NC(=O)c3cc(F)cc4[nH]ncc34)cc3c2CNC3)cc1 | 54.7 µM and 75 µM | 75.4 µM
CO[C@H]1C[C@H](n2cc3c(C(=O)Nc4ccc5c(c4)CNC5)cc(Cl)cc3n2)C1 | > 100 µM | > 99.5 µM
O=C(Nc1ccc2c(c1)CNC2)c1cc(F)cc(-c2cn[nH]c2)c1 | 74.7 µM | > 99.5 µM
O=C(Nc1ccc2c(c1)CNC2)c1cc(F)cc(-c2ccnc3c2CCO3)c1 | > 100 µM | 83.8 µM
COc1ccc(OC)c([C@H]2CCCN2C(=O)Nc2ccc3c(c2)CNC3)c1 | > 100 µM | > 99.5 µM
Fc1cc(CNc2ccc3c(n2)CNC3)c2cn[nH]c2c1 | > 100 µM | > 99.5 µM
O=C(Nc1cc(-c2cccnc2)ccn1)c1cc2n(n1)CCC2 | > 100 µM | > 99.5 µM
COC[C@]1(c2nc3c(C(=O)Nc4ccc5c(c4)CNC5)cc(F)cc3[nH]2)CCOC1 | > 100 µM | > 99.5 µM
CC(=O)N1CCCc2cc(NC(=O)c3cc(C4CC4)n(C)c3C)ccc21 | > 100 µM | > 99.5 µM
N#Cc1c[nH]c2ccc(C(=O)Nc3ccc4c(c3)CNC4)cc12 | > 100 µM | > 99.5 µM
Cc1c(C(=O)Nc2cc(-c3cccnc3)ccn2)cnn1C1CC1 | > 100 µM | > 99.5 µM
CNC(=O)[C@H](Nc1ccc2c(c1)CNC2)c1cc(Cl)cc2[nH]c(-c3ccccc3)nc12 | 21.2 µM and 23.2 µM | 49.6 µM
O=C(Nc1ccc2c(c1)CN[C@H]2C[C@H](O)CO)c1cc(F)cc2[nH]ncc12 | 23.2 µM and 22.1 µM | 40.1 µM
O=C(Nc1cc([C@H]2CCOC2)ccn1)c1cc(F)cc2[nH]ccc12 | > 100 µM | > 99.5 µM
CC(C)Cn1cc2c(C(=O)Nc3ccc4c(c3)CNC4)cc(Cl)cc2n1 | > 100 µM | > 99.5 µM
O=C(Nc1ccc2c(c1)CNC2)c1cc(Cl)cc2nn(C3CCOCC3)cc12 | > 100 µM | 90.2 µM
O=C(NCCCF)[C@H](Nc1ccc2c(c1)CNC2)c1cc(Cl)cc(C2CC2)c1 | > 100 µM | > 99.5 µM
O=C(Nc1ccc2c(c1)CNC2)c1cc(F)cc(-c2ccc3c(=O)[nH]ncc3c2)c1 | 36 µM and 33.9 µM | 25 µM and 22.8 µM
O=C(Nc1ccc2c(c1)CNC2)c1ccc2ncsc2n1 | > 100 µM | > 99.5 µM
NC[C@H]1OCCc2sc(C(=O)Nc3cc(-c4cccnc4)ccn3)cc21 | > 100 µM | > 99.5 µM

SMILES | IC50 (Genome polyprotein [1]) | IC50 (Genome polyprotein [2])
CN(C)c1nc(-c2cc(F)cc(C(=O)Nc3ccc4c(c3)CNC4)c2)cs1 | > 100 µM | > 99.5 µM
O=C(Nc1cc([C@H]2CCOC2)ccn1)c1cc(F)cc2[nH]ncc12 | > 100 µM | > 99.5 µM
CC(C)n1cc(C(=O)Nc2cc(-c3cccnc3)ccn2)cn1 | > 100 µM | > 99.5 µM
O=C(Nc1ccc2c(c1)CNC2)c1cc(Cl)cc2nn(C3COC3)cc12 | > 100 µM | > 99.5 µM
Nc1n[nH]c2cc(C(=O)Nc3ccc4c(c3)CNC4)ccc12 | > 100 µM | > 99.5 µM
CCCn1cc2c(C(=O)Nc3ccc4c(c3)CNC4)cc(Cl)cc2n1 | > 100 µM | > 99.5 µM
O=C(Nc1cc([C@H]2CCOC2)ccn1)c1ccc2scnc2c1 | > 100 µM | > 99.5 µM
CC(C)NC(=O)[C@H](Nc1ccc2c(c1)CN(C)C2(C)C)c1cc(Cl)cc2[nH]ncc12 | 28.2 µM | 98.9 µM
O=C(NCCOCC1CC1)[C@H](Nc1ccc2c(c1)CNC2)c1cc(Cl)cc(C2CC2)c1 | > 100 µM | > 99.5 µM
Cc1cc(C(=O)Nc2cc(-c3cccnc3)ccn2)c(C)n1C | > 100 µM | > 99.5 µM
O=C(Nc1cc(-c2cccnc2)ccn1)c1nnc(C2CC2)s1 | > 100 µM | > 99.5 µM
O=C(Nc1ccc2c(c1)CN[C@H]2c1ccccc1)c1cc(F)cc2[nH]ncc12 | 65.9 µM | > 99.5 µM
O=C1CCc2c(cccc2C(=O)Nc2ccc3c(c2)CNC3)N1 | > 100 µM | > 99.5 µM
CCCCNC(=O)[C@H](Nc1ccc2c(c1)CNC2)c1cc(Cl)cc(C2CC2)c1 | > 100 µM | > 99.5 µM
O=C(Nc1cc(-c2cccnc2)ccn1)c1cn([C@H]2CCCNC2)nn1 | > 100 µM | > 99.5 µM
Cc1c(C(=O)Nc2cc(-c3cccnc3)ccn2)cc(C#N)n1C | 53.3 µM and 62.1 µM | 57.7 µM
O=S(=O)(Nc1ccc2c(c1)CNC2)c1cccc2[nH]ncc12 | > 100 µM | > 99.5 µM
O=C(NCC(F)F)[C@H](Nc1ccc2c(c1)CNC2)c1cc(Br)cc2[nH]ccc12 | > 100 µM | > 99.5 µM
O=C1Cc2c(cccc2C(=O)Nc2cc([C@H]3CCOC3)ccn2)N1 | > 100 µM | > 99.5 µM
O=C(Nc1ccc2c(c1)CNC2)c1cccc2c1[C@]1(CCNC1)C(=O)N2 | > 100 µM | > 99.5 µM
Cc1ncc(-c2cc(F)cc(C(=O)Nc3ccc4c(c3)CNC4)c2)s1 | > 100 µM | > 99.5 µM
